27 compounds from patent US11033539B2, “Compounds of formulas (VII), (VIII), (IX), (XI), (XII), (XIII), and (XIV) as muscarinic receptor 4(M4) antagonists for treating neurological diseases” (Neurocrine Biosciences, Inc., priority 2015, dated 2021) can be followed below.

The assay addresses human M4 receptor (Homo sapiens (Human), UniProt P08173). As to the kind of experiment: Radioligand (tritiated N-methylscopolamine) binding assay, M4. As to conditions: Ki against the M4 receptor; membranes from CHO cells expressing human M4; tritiated N-methylscopolamine 1.5 nM; read-out: Ki. Put shortly:
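Compounds were tested at twelve concentrations ranging from 10 μM to […] against 1.5 nM radioligand on CHO cell membranes expressing each subtype. Incubation lasts 90 min at 37 °C in HEPES-buffered saline with Mg2+ and EDTA, pH 7.4, and filtration then separates bound radioligand.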

Sequence of human M4 receptor (P08173 whole entry): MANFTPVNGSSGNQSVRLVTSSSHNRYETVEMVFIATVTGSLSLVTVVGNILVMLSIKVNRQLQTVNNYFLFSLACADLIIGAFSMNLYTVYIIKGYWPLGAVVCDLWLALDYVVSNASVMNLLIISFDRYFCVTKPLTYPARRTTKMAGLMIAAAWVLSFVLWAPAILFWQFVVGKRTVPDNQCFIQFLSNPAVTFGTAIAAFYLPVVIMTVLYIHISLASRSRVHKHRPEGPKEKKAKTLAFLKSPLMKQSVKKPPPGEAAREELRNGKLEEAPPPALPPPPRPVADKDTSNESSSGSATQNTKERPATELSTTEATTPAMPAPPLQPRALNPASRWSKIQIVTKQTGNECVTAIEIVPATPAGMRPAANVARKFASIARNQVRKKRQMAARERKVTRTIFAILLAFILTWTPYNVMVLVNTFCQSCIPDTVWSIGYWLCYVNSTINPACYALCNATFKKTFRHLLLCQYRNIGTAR

`O=C(NCCC1CCN(Cc2ccccc2)CC1)C1(F)CCN(c2ccc(OC(F)(F)F)cc2)CC1` [10-55, N-[2-(1-benzylpiperidin-4-yl)ethyl]-4-fluoro-1-[4-(trifluoromethoxy)phenyl]piperidine-4-carboxamide]: the Ki (commonly a dissociation constant, usually derived from enzyme kinetics or from competition with a known ligand) was in the range of 0.01 to 0.1 µM.

`O=C(NCCC1CCN(Cc2ccccc2)CC1)C1CCN(c2ccccc2F)CC1` [10-59, N-[2-(1-benzylpiperidin-4-yl)ethyl]-1-(2-fluorophenyl)piperidine-4-carboxamide]: the Ki lay within 0.1 to 1 µM.

As for `COc1ccc(N2CCC(C(=O)NCCC3CCN(Cc4ccccc4)CC3)CC2)cc1` [10-60, N-[2-(1-benzylpiperidin-4-yl)ethyl]-1-(4-methoxyphenyl)piperidine-4-carboxamide], the Ki was in the range of 0.1 to 1 µM.

For `O=C(NCCC1CCN(Cc2ccccc2)CC1)C1(O)CCN(c2ccc(OC(F)(F)F)cn2)CC1` [10-61, N-[2-(1-benzylpiperidin-4-yl)ethyl]-4-hydroxy-1-[5-(trifluoromethoxy)pyridin-2-yl]piperidine-4-carboxamide], the Ki is 0.1 to 1 µM.

For `O=C(NCCC1CCN(Cc2ccccc2)CC1)C1(O)CCN(c2cccc(OC(F)(F)F)c2)CC1` [10-62, N-[2-(1-benzylpiperidin-4-yl)ethyl]-4-hydroxy-1-[3-(trifluoromethoxy)phenyl]piperidine-4-carboxamide], the Ki is 0.1 to 1 µM.

For `COC1(C(=O)NCCC2CCN(Cc3ccccc3)CC2)CCN(c2ccc(OC(F)(F)F)cn2)CC1` [10-63, N-[2-(1-benzylpiperidin-4-yl)ethyl]-4-methoxy-1-[5-(trifluoromethoxy)pyridin-2-yl]piperidine-4-carboxamide], the Ki was 0.1 to 1 µM.

For the compound `O=C(NCCC1CCN(Cc2ccccc2)CC1)C1(O)CCN(c2cc(F)ccc2F)CC1` [10-64, N-[2-(1-benzylpiperidin-4-yl)ethyl]-1-(2,5-difluorophenyl)-4-hydroxypiperidine-4-carboxamide], the Ki fell in the range of 0.1 to 1 µM.

For the compound `CS(=O)(=O)c1cccc(N2CCC(C(=O)NCCC3CCN(Cc4ccccc4)CC3)CC2)c1` [10-65, N-[2-(1-benzylpiperidin-4-yl)ethyl]-1-(3-methanesulfonylphenyl)piperidine-4-carboxamide], the Ki lay within 0.1 to 1 µM.

Consider `N#Cc1ccnc(N2CCC(C(=O)NCCC3CCN(Cc4ccccc4)CC3)CC2)c1` [10-66, N-[2-(1-benzylpiperidin-4-yl)ethyl]-1-(4-cyanopyridin-2-yl)piperidine-4-carboxamide], for which the inhibition constant (Ki) lay in the range of 0.1 to 1 µM.

On to `N#Cc1ccccc1N1CCC(C(=O)NCCC2CCN(Cc3ccccc3)CC2)CC1` [10-67, N-[2-(1-benzylpiperidin-4-yl)ethyl]-1-(2-cyanophenyl)piperidine-4-carboxamide], for which the Ki was in the range of 0.1 to 1 µM.

For the compound `O=C(NCCC1CCN(Cc2ccccc2)CC1)C1CCN(c2ccc(C(F)(F)F)nc2)CC1` [10-68, N-[2-(1-benzylpiperidin-4-yl)ethyl]-1-[6-(trifluoromethyl)pyridin-3-yl]piperidine-4-carboxamide], the Ki fell in the range of 0.1 to 1 µM.

Take `N#Cc1cc(F)ccc1N1CCC(C(=O)NCCC2CCN(Cc3ccccc3)CC2)CC1` [10-69, N-[2-(1-benzylpiperidin-4-yl)ethyl]-1-(2-cyano-4-fluorophenyl)piperidine-4-carboxamide]: the inhibitory constant (Ki) lay within 0.1 to 1 µM.

`O=C(NCCC1CCN(Cc2ccccc2)CC1)C1CCN(c2ccccc2OC(F)(F)F)CC1` [10-70, N-[2-(1-benzylpiperidin-4-yl)ethyl]-1-[2-(trifluoromethoxy)phenyl]piperidine-4-carboxamide]: the Ki was 0.1 to 1 µM.

With `O=C(NCCC1CCN(Cc2ccccc2)CC1)[C@H]1CCN(c2ccc(OC(F)(F)F)cc2)C1` [10-71, (3S)-N-[2-(1-benzylpiperidin-4-yl)ethyl]-1-[4-(trifluoromethoxy)phenyl]pyrrolidine-3-carboxamide], the Ki is 0.1 to 1 µM.

As for `O=C(NCCC1CCN(Cc2ccccc2)CC1)[C@@H]1CCN(c2ccc(OC(F)(F)F)cc2)C1` [10-72, (3R)-N-[2-(1-benzylpiperidin-4-yl)ethyl]-1-[4-(trifluoromethoxy)phenyl]pyrrolidine-3-carboxamide], the Ki was in the range of 0.1 to 1 µM.

Turning to `O=C(NCCC1CCN(Cc2ccccc2)CC1)C1CCN(c2ccc(F)cn2)CC1` [10-73, N-[2-(1-benzylpiperidin-4-yl)ethyl]-1-(5-fluoropyridin-2-yl)piperidine-4-carboxamide], the Ki fell in the range of 0.1 to 1 µM.

For `Cc1cc(C)nc(N2CCC(C(=O)NCCC3CCN(Cc4ccccc4)CC3)CC2)n1` [10-74, N-[2-(1-benzylpiperidin-4-yl)ethyl]-1-(4,6-dimethylpyrimidin-2-yl)piperidine-4-carboxamide], the Ki was 0.1 to 1 µM.

On to `COC1(C(=O)NCCC2CCN(Cc3ccccc3)CC2)CCN(c2ccccc2OC(F)(F)F)CC1` [10-75, N-[2-(1-benzylpiperidin-4-yl)ethyl]-4-methoxy-1-[2-(trifluoromethoxy)phenyl]piperidine-4-carboxamide], for which the Ki is 0.1 to 1 µM.

As to `O=C(NCCC1CCN(Cc2ccccc2)CC1)C1CCN(c2ccc(OC(F)F)cc2)CC1` [10-76, N-[2-(1-benzylpiperidin-4-yl)ethyl]-1-[4-(difluoromethoxy)phenyl]piperidine-4-carboxamide], the Ki was 0.01 to 0.1 µM.

Turning to `N#Cc1cccc(N2CCC(C(=O)NCCC3CCN(Cc4ccccc4)CC3)CC2)c1` [10-77, N-[2-(1-benzylpiperidin-4-yl)ethyl]-1-(3-cyanophenyl)piperidine-4-carboxamide], the Ki is 0.01 to 0.1 µM.

On to `N#Cc1ccc(N2CCC(C(=O)NCCC3CCN(Cc4ccccc4)CC3)CC2)cc1F` [10-78, N-[2-(1-benzylpiperidin-4-yl)ethyl]-1-(4-cyano-3-fluorophenyl)piperidine-4-carboxamide], for which the inhibition constant Ki fell in the range of 0.01 to 0.1 µM.

Regarding `O=C(NCCC1CCN(Cc2ccc(O)cc2)CC1)C1CCN(c2ccc(OC(F)(F)F)cc2)CC1` [11-1, N-(2-{1-[(4-hydroxyphenyl)methyl]piperidin-4-yl}ethyl)-1-[4-(trifluoromethoxy)phenyl]piperidine-4-carboxamide], the Ki lay in the range of 0.01 to 0.1 µM.

Consider `O=C(NCCC1CCN(Cc2cccnc2F)CC1)c1ccc(Oc2ccccc2)cc1` [11-2, N-(2-{1-[(2-fluoropyridin-3-yl)methyl]piperidin-4-yl}ethyl)-4-phenoxybenzamide], for which the Ki was in the range of 0.01 to 0.1 µM.

For the compound `O=C(NCCC1CCN(Cc2ccccc2O)CC1)c1ccc(OCc2ccccc2)cc1` [11-3, 4-(benzyloxy)-N-(2-{1-[(2-hydroxyphenyl)methyl]piperidin-4-yl}ethyl)benzamide], the inhibition constant (Ki) was 0.01 to 0.1 µM.

Turning to `Cc1nc(CN2CCC(CCNC(=O)C3CCN(c4ccc(OC(F)(F)F)cc4)CC3)CC2)cs1` [11-4, N-(2-{1-[(2-methyl-1,3-thiazol-4-yl)methyl]piperidin-4-yl}ethyl)-1-[4-(trifluoromethoxy)phenyl]piperidine-4-carboxamide], the Ki is 0.1 to 1 µM.

For `O=C(NCCC1CCN(Cc2ccccc2O)CC1)c1ccc(Oc2ccccc2)cc1` [11-5, N-(2-{1-[(2-hydroxyphenyl)methyl]piperidin-4-yl}ethyl)-4-phenoxybenzamide], the Ki is 0.1 to 1 µM.

As to `COC(=O)C(c1ccccc1)N1CCC(CCNC(=O)C2CCN(c3ccc(OC(F)(F)F)cc3)CC2)CC1` (stereo not drawn) [11-6, methyl 2-phenyl-2-{4-[2-({l-[4-(trifluoromethoxy)phenyl]piperidin-4-yl}formamido)ethyl]piperidin-1-yl}acetate], the Ki was 0.01 to 0.1 µM.
